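Each compound was tested at five concentrations against cells in 96-well plates for 48 hours. TGI marks complete inhibition of growth.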
Experiments:
Experiment in all cases: NCI tumour cell line growth inhibition, 48 h
[1] = tested on: 786-0 renal
[2] = tested on: A498 renal
[3] = tested on: A549 NSCLC
[4] = tested on: ACHN renal
[5] = tested on: BT-549 breast
[6] = tested on: CAKI-1 renal
[7] = tested on: CCRF-CEM leukemia
[8] = tested on: COLO 205 colon
[9] = tested on: DU-145 prostate
[10] = tested on: EKVX NSCLC
[11] = tested on: HCC-2998 colon
[12] = tested on: HCT-116 colon
[13] = tested on: HCT-15 colon
[14] = tested on: HL-60(TB) leukemia
[15] = tested on: HOP-62 NSCLC
[16] = tested on: HOP-92 NSCLC
[17] = tested on: HS 578T breast
[18] = tested on: HT29 colon
[19] = tested on: IGROV1 ovarian
[20] = tested on: K-562 leukemia
[21] = tested on: KM12 colon
[22] = tested on: M14 melanoma
[23] = tested on: MALME-3M melanoma
[24] = tested on: MCF7 breast
[25] = tested on: MDA-MB-231 breast
[26] = tested on: MDA-MB-435
[27] = tested on: MDA-N
[28] = tested on: MOLT-4 leukemia
[29] = tested on: NCI-H226 lung
[30] = tested on: NCI-H23 lung
[31] = tested on: NCI-H460 lung
[32] = tested on: NCI-H522 lung
[33] = tested on: NCI/ADR-RES ovarian
[34] = tested on: OVCAR-3 ovarian
[35] = tested on: OVCAR-4 ovarian
[36] = tested on: OVCAR-5 ovarian
[37] = tested on: OVCAR-8 ovarian
[38] = tested on: PC-3 prostate
[39] = tested on: RPMI-8226 leukemia
[40] = tested on: RXF 393 renal
[41] = tested on: SF-268 CNS
[42] = tested on: SF-295 CNS
[43] = tested on: SF-539 CNS
[44] = tested on: SK-MEL-2 melanoma
[45] = tested on: SK-MEL-28 melanoma
[46] = tested on: SK-MEL-5 melanoma
[47] = tested on: SK-OV-3 ovarian
[48] = tested on: SN12C renal
[49] = tested on: SNB-19 CNS
[50] = tested on: SNB-75 CNS
[51] = tested on: SR leukemia
[52] = tested on: SW-620 colon
[53] = tested on: T-47D breast
[54] = tested on: TK-10 renal
[55] = tested on: U251 CNS
[56] = tested on: UACC-257 melanoma
[57] = tested on: UACC-62 melanoma
[58] = tested on: UO-31 renal
[59] = tested on: LOX IMVI melanoma

For `CC(C)(C)OC(=O)N1CC(COS(C)(=O)=O)c2ccc(O)cc21` (stereo not drawn), the TGI [1] was 11 µM, the TGI [2] was 4.38 µM and the TGI [3] was 10.7 µM. It also gave a TGI [4] of 3.12 µM, a TGI [5] of 3.58 µM and a TGI [6] of 9.62 µM. It also gave a TGI [7] of 3.06 µM, a TGI [8] of 3.31 µM and a TGI [9] of 3.53 µM. The TGI [10] was 4.59 µM, the TGI [11] was 0.991 µM and the TGI [12] was 10.3 µM. For the same molecule, the TGI [13] was 5.68 µM, the TGI [14] was 3.98 µM and the TGI [15] was 8.05 µM. For the same molecule, the TGI [16] was 5.56 µM, the TGI [17] was 5.75 µM and the TGI [18] was 10.6 µM. The TGI [19] was 12.1 µM, the TGI [20] was 9.54 µM and the TGI [21] was 7.16 µM. It also gave a TGI [22] of 3.14 µM, a TGI [23] of 2.86 µM and a TGI [24] of 7.49 µM. The TGI [25] was 8.41 µM, the TGI [26] was 3.21 µM and the TGI [27] was 3.98 µM. The TGI [28] was 3.92 µM, the TGI [29] was 4.67 µM and the TGI [30] was 3.05 µM. The TGI [31] was 5.45 µM, the TGI [32] was 2.39 µM and the TGI [33] was 4.07 µM. It also gave a TGI [34] of 7.25 µM, a TGI [35] of 3.13 µM and a TGI [36] of 5.86 µM. It also gave a TGI [37] of 4.51 µM, a TGI [38] of 3.83 µM and a TGI [39] of 3.96 µM. The TGI [40] was 0.924 µM, the TGI [41] was 4.33 µM and the TGI [42] was 10.8 µM. For the same molecule, the TGI [43] was 3.84 µM, the TGI [44] was 2.9 µM and the TGI [45] was 3.8 µM. The TGI [46] was 2.92 µM, the TGI [47] was 8.88 µM and the TGI [48] was 6.77 µM. The TGI [49] was 8.95 µM, the TGI [50] was 3.05 µM and the TGI [51] was 5.31 µM. It also gave a TGI [52] of 9.57 µM, a TGI [53] of 11.1 µM and a TGI [54] of 8.76 µM. The TGI [55] was 9.69 µM, the TGI [56] was 5.54 µM and the TGI [57] was 3.2 µM. It also gave a TGI [58] of 5.26 µM.
With `Nc1c2ccccc2nc2ccc(C(=O)Nc3ccc(S(N)(=O)=O)cc3)cc12` the TGI [1] was > 100 µM, the TGI [3] was > 100 µM and the TGI [4] was > 100 µM. The TGI [5] was > 100 µM, the TGI [6] was > 100 µM and the TGI [7] was > 100 µM. For the same molecule, the TGI [8] was > 100 µM, the TGI [9] was > 100 µM and the TGI [10] was > 100 µM. For the same molecule, the TGI [11] was > 100 µM, the TGI [12] was > 100 µM and the TGI [13] was > 100 µM. For the same molecule, the TGI [14] was > 100 µM, the TGI [15] was > 100 µM and the TGI [16] was > 100 µM. The TGI [17] was > 100 µM, the TGI [18] was > 100 µM and the TGI [19] was > 100 µM. The TGI [20] was > 100 µM, the TGI [21] was > 100 µM and the TGI [59] was > 100 µM. For the same molecule, the TGI [22] was > 100 µM, the TGI [23] was > 100 µM and the TGI [24] was > 100 µM. The TGI [25] was > 100 µM, the TGI [26] was > 100 µM and the TGI [27] was > 100 µM. For the same molecule, the TGI [28] was > 100 µM, the TGI [29] was > 100 µM and the TGI [30] was > 100 µM. For the same molecule, the TGI [31] was > 100 µM, the TGI [32] was > 100 µM and the TGI [33] was > 100 µM. The TGI [34] was > 100 µM, the TGI [35] was > 100 µM and the TGI [36] was > 100 µM. The TGI [37] was > 100 µM, the TGI [38] was > 100 µM and the TGI [39] was > 100 µM. The TGI [40] was > 100 µM, the TGI [41] was > 100 µM and the TGI [42] was > 100 µM. For the same molecule, the TGI [43] was > 100 µM, the TGI [44] was > 100 µM and the TGI [45] was > 100 µM. For the same molecule, the TGI [46] was > 100 µM, the TGI [47] was > 100 µM and the TGI [48] was > 100 µM. For the same molecule, the TGI [49] was > 100 µM, the TGI [50] was > 100 µM and the TGI [51] was > 100 µM. The TGI [52] was > 100 µM, the TGI [53] was > 100 µM and the TGI [54] was > 100 µM. For the same molecule, the TGI [55] was > 100 µM, the TGI [56] was > 100 µM and the TGI [57] was > 100 µM. For the same molecule, the TGI [58] was > 100 µM.
In the case of `COC(=O)[C@H]1ON2O[C@H](OC3CCCC[C@@H]3c3ccccc3)C[C@@H]3CC[C@H]1[C@@]32C` (stereo partly drawn), the TGI [1] is reported as > 100 µM, the TGI [2] is reported as > 100 µM and the TGI [3] is reported as > 100 µM. For the same molecule, the TGI [4] was > 100 µM, the TGI [5] was > 100 µM and the TGI [6] was > 100 µM. The TGI [7] was > 100 µM, the TGI [8] was > 100 µM and the TGI [9] was > 100 µM. The TGI [10] was > 100 µM, the TGI [11] was > 100 µM and the TGI [12] was > 100 µM. The TGI [13] was > 100 µM, the TGI [14] was 98.5 µM and the TGI [15] was > 100 µM. For the same molecule, the TGI [16] was > 100 µM, the TGI [17] was > 100 µM and the TGI [18] was > 100 µM. For the same molecule, the TGI [19] was > 100 µM, the TGI [20] was > 100 µM and the TGI [21] was > 100 µM. For the same molecule, the TGI [59] was > 100 µM, the TGI [22] was > 100 µM and the TGI [23] was > 100 µM. For the same molecule, the TGI [24] was > 100 µM, the TGI [25] was > 100 µM and the TGI [26] was > 100 µM. The TGI [27] was > 100 µM, the TGI [28] was > 100 µM and the TGI [29] was > 100 µM. The TGI [30] was > 100 µM, the TGI [31] was > 100 µM and the TGI [32] was > 100 µM. The TGI [33] was > 100 µM, the TGI [35] was > 100 µM and the TGI [36] was > 100 µM. For the same molecule, the TGI [37] was > 100 µM, the TGI [38] was > 100 µM and the TGI [39] was > 100 µM. For the same molecule, the TGI [40] was > 100 µM, the TGI [41] was > 100 µM and the TGI [42] was > 100 µM. For the same molecule, the TGI [44] was > 100 µM, the TGI [45] was > 100 µM and the TGI [46] was > 100 µM. The TGI [47] was > 100 µM, the TGI [48] was > 100 µM and the TGI [49] was > 100 µM. For the same molecule, the TGI [50] was > 100 µM, the TGI [51] was > 100 µM and the TGI [52] was > 100 µM. For the same molecule, the TGI [53] was > 100 µM, the TGI [54] was > 100 µM and the TGI [55] was > 100 µM. For the same molecule, the TGI [56] was > 100 µM, the TGI [57] was > 100 µM and the TGI [58] was > 100 µM.

From PubChem BioAssay (NCI)
